The source of these data is patent US20240415989A1, “RADIOLABELED COMPOUND, AND PRECURSOR COMPOUND THEREOF, PREPARATION METHOD THEREFOR, AND APPLICATION THEREOF” (priority 2021, published 2024).

In one data set the test system is plasma protein. The format is in vitro ADME. The following applies: human. On the procedure: 1 mL of fresh human plasma anticoagulated with heparin was taken for later use. Three EP tubes were taken and numbered as A-(1), A-(2), and A-(3), and were each added with 0.1 ml of fresh human plasma and 0.25 ml of freshly prepared ^68Ga-DOTA-ibandronic acid with about 0.5 mci. Then they were incubated in a metal bath at 37° C. for 30 minutes. Three 5 ml centrifuge tubes were taken and numbered as B-(1), B-(2), and B-(3). The incubated solutions were transferred to the corresponding centrifuge tubes, respectively. Then 1 ml of 25% trichloroacetic acid solution was added to each centrifuge tube, mixed thoroughly, then centrifuged at 2000 r/min for 5 minutes. The supernatants were respectively collected into 3 corresponding test tubes (numbered as C-(1), C-(2), C-(3), respectively). The centrifugation and supernatant collection were repeated 3 times. The total radioactivity count of the precipitations in the centrifuge tubes and that of the supernatants in the test tubes were measured by a γ counter, respectively, and the plasma protein binding rate (PPB) was calculated.

Data set [1] in a line: In vitro stability in normal saline (radiochemical purity by TLC). The format is physicochemical. As for the experimental part: Four EP tubes were taken and marked as numbers (1) to (4) in sequence, in which 0.1 ml of normal saline was added to numbers (1) and (2), respectively, 0.1 ml of fresh human serum diluted 10 times was added to numbers (3) and (4), respectively, and then 1.0 mci of freshly prepared ^68Ga-DOTA-ibandronic acid was added to these 4 tubes, respectively. Numbers (1) and (3) were placed at room temperature (25±2° C.) and numbers (2) and (4) were placed in a 37° C. metal bath for incubation. The radiochemical purity values of numbers (1) to (4) were measured using a thin layer paper chromatography (TLC) at 10 min, 30 min, 1 h, 2 h, 3 h, 4 h, respectively.

The nature of data set [2]: Lipid-water distribution coefficient (n-octanol/deionized water). The format is physicochemical. On the procedure: Three 5 ml centrifuge tubes were taken, and numbered as A-(1), A-(2) and A-(3), respectively. 0.5 ml of n-octanol, 0.485 ml of deionized water and 0.25 ml of freshly prepared ^68Ga-DOTA-ibandronic acid with about 0.5 mci were added to each tube, and the centrifuge tubes were shaken by a vortex mixer for 20 minutes, then centrifuged at 2000 r/min for 5 minutes, from which 0.1 ml of upper liquid (organic phase) was respectively collected into 3 corresponding test tubes (numbered as B-(1), B-(2), B-(3), respectively), and 0.1 ml of lower liquid (aqueous phase) was respectively collected into 3 corresponding test tubes (numbered as C-(1), C-(2), C-(3), respectively). The total radioactivity count of the organic phase and that of the aqueous phase were measured by γ counter, respectively, and the lipid-water distribution coefficient lgP was calculated by formula.

Data set [3] concerns PC-3, H1975, MDA-MB-231 bone metastasis models. Nature of the data set: Therapeutic effect on tumor-bearing mice, free movement pain behavior scoring. The format is in vivo, nude mice. As for the experimental part: In this experimental example, the therapeutic effects of ^177Lu-DOTA-ibandronic acid of the present disclosure on tumor-bearing mice (PC-3, H1975, MDA-MB-231 bone metastasis models) were investigated. The ^177Lu-DOTA-ibandronic acid used in this experimental example was prepared according to the method of Example 6.
(1) Establishment of tumor-bearing mouse models: 24 SPF male nude mice and 12 SPF female nude mice were taken, and anesthetized with isoflurane. Then the skin around the left knee joint was disinfected, and the left hind limb was bent. An insulin needle (29G needle) was inserted into the tibia vertically from concave point of the articular fossa of the tibia, slowly rotated and inserted into the medullary cavity, to inject 25 μl of cell culture (approximately 2×10^6) of PC-3 (12 males), H1975 (12 males), and MDA-MB-231 (12 females). Then disinfection was carried out, and the holes were sealed with sterile bone wax. The animals were placed on a 37° C. hot-plate for rewarming. After resuscitation, they were returned to the cage and continued to be raised.
(2) Testing of tumor-bearing mouse models: After 4 weeks of inoculation, 36 nude mice were scanned using Micro-CT, respectively.
(3) Methods of different treatments and grouping: The 36 successfully modelled tumor-bearing mice were randomly divided into 4 groups. Among them, 2 groups were injected with ^177Lu-DOTA-ibandronic acid with low and high radioactivity (100 μCi, 500 μCi) into the tail vein, respectively, 3 animals in each group; and the animals in the blank control groups were injected with normal saline, and divided into a small volume group and a large volume group (10 μl, 50 μl), 3 animals in each group.
(4) Detection and results of treatment effect: Free movement pain behavior scoring was carried out on days 0, 7, 14, 21, 28, and 35, and used as the main indicator of bone pain relief in the tumor-bearing mice. At the corresponding time points, the tumor-bearing mice were placed in a transparent smooth flat-bottomed plastic box. […]

Where [4] appears, read: high activity 500 μCi, compared with all groups.

Regarding `CN(CCCCNC(=O)CN1CCN(CC(=O)O)CCN(CC(=O)O)CCN(CC(=O)O)CC1)CCC(O)(P(=O)(O)O)P(=O)(O)O.[68Ga]` [^68Ga-DOTA-ibandronic acid], in the data set with plasma protein, the “plasma protein binding rate (PPB)” value is given as 81%. The Radiochemical purity is listed as 99% in data set [1] (37° C., 10 min); 96% in data set [1] (37° C., 30 min); 96% in data set [1] (37° C., 1 h); 92% in data set [1] (37° C., 2 h); 90% in data set [1] (37° C., 3 h); 87% in data set [1] (37° C., 4 h). Besides, the Radiochemical purity in data set [1] (room temperature, 10 min) is listed as 98%; in data set [1] (room temperature, 30 min), 97%; in data set [1] (room temperature, 1 h), 95%; in data set [1] (room temperature, 2 h), 95%; in data set [1] (room temperature, 3 h), 95%; in data set [1] (room temperature, 4 h), 93%. Moreover, in data set [2], the “lipid-water distribution coefficient lgP” value was −2.33.

Regarding `CN(CCCCNC(=O)CN1CCN(CC(=O)O)CCN(CC(=O)O)CCN(CC(=O)O)CC1)CCC(O)(P(=O)(O)O)P(=O)(O)O.[177Lu]` [^177Lu-DOTA-ibandronic acid], the “therapeutic efficacy versus control group” value in data set [3] (different doses (100 μCi, 500 μCi) versus normal saline) was “higher than that of the corresponding control group”. For the same compound, in data set [3] (setting [4]), the bone pain relief result was “relieved to the greatest extent” and the “survival rate within 5 weeks of administration” value is recorded as “relatively highest”.
